What was measured:
Assay type in all cases: biochemical
SIK1 = SIK1 (Homo sapiens, UniProt P57059); test: SIK1 kinase assay, IMAP fluorescence polarization
Abl = Abl (Homo sapiens, UniProt P00519); test: Abl kinase assay, IMAP fluorescence polarization
Src = Src (Homo sapiens, UniProt P12931); test: Src kinase assay, IMAP fluorescence polarization
SIK2 = SIK2 (Homo sapiens, UniProt Q9H0K1); test: SIK2 kinase assay, IMAP fluorescence polarization
SIK3 = SIK3 (Homo sapiens, UniProt Q9Y2K2); test: SIK3 kinase assay, IMAP fluorescence polarization
SIK3, sequence (Q9Y2K2 whole entry): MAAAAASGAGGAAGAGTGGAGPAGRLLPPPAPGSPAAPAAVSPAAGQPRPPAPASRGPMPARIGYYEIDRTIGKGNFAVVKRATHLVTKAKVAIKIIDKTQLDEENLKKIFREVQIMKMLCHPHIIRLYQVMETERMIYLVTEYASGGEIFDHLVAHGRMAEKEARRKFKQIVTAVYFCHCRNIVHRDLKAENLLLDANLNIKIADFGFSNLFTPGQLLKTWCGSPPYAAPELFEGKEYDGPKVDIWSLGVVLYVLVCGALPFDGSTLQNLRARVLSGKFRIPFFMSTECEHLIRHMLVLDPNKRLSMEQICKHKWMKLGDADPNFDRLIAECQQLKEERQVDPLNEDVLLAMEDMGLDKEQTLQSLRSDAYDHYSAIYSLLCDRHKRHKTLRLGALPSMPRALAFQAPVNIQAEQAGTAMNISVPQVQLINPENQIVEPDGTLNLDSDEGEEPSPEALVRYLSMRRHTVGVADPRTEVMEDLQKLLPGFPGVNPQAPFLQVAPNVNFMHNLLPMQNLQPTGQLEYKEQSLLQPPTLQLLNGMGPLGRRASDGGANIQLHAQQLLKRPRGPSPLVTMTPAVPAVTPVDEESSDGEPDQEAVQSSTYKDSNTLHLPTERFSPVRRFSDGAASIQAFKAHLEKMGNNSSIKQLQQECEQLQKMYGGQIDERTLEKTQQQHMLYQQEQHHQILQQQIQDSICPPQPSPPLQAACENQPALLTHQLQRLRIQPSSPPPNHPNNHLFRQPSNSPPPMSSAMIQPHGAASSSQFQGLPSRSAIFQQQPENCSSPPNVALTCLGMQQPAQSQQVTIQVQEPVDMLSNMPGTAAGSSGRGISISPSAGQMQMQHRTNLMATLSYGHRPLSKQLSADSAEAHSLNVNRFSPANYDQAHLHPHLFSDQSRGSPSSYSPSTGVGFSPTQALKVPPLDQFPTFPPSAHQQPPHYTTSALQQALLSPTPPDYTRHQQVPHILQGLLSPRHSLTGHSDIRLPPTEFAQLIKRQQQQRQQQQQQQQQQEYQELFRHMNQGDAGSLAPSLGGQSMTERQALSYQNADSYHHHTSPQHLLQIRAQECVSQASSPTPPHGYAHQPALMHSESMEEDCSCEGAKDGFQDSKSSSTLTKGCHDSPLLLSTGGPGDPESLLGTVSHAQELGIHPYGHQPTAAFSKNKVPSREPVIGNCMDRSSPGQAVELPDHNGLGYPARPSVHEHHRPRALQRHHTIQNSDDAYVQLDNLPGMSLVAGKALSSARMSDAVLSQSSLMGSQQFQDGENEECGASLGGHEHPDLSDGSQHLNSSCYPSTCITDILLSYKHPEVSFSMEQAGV

Abl, sequence (P00519 whole entry): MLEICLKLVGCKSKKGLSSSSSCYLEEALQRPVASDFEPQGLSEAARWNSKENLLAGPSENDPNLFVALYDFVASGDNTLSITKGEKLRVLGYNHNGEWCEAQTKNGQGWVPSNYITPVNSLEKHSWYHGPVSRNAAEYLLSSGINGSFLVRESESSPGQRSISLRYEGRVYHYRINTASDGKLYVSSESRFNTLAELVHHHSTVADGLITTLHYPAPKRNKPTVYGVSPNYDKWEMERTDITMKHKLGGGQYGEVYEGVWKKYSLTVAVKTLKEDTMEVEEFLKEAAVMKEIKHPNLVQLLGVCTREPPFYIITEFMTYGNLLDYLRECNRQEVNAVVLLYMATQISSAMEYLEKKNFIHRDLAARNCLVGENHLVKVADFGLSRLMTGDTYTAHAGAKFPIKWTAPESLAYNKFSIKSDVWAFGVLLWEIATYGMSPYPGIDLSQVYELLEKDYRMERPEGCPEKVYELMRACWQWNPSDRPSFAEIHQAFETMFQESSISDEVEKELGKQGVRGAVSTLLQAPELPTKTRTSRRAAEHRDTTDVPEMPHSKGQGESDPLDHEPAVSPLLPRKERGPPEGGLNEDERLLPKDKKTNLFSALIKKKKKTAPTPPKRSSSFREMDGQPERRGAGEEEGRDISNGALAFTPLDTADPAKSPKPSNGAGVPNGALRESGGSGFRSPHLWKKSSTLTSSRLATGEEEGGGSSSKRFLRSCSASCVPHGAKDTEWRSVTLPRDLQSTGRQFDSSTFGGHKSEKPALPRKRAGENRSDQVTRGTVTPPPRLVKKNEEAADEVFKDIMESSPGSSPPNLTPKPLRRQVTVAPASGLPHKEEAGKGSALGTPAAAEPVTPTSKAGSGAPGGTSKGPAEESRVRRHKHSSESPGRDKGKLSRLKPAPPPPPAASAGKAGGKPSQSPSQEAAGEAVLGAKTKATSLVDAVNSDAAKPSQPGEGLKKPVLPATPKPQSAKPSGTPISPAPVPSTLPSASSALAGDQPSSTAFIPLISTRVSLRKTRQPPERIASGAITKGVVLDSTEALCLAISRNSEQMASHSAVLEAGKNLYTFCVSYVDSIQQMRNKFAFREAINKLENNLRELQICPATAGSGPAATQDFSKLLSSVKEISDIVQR
Src, sequence (P12931 whole entry): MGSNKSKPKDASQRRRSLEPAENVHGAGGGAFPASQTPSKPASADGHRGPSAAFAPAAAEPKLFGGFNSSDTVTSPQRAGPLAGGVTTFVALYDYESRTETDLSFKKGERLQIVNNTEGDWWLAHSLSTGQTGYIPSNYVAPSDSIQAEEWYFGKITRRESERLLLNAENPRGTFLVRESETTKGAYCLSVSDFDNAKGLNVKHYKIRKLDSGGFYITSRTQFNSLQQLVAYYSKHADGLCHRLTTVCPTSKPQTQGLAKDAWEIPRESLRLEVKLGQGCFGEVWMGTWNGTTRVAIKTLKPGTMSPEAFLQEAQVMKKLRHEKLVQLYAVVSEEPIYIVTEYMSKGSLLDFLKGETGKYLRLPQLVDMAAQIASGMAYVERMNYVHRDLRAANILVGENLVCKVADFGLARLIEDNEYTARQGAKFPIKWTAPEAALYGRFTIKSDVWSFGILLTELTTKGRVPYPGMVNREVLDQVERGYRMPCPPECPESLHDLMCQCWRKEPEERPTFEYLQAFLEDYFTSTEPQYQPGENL
SIK1, sequence (P57059 whole entry): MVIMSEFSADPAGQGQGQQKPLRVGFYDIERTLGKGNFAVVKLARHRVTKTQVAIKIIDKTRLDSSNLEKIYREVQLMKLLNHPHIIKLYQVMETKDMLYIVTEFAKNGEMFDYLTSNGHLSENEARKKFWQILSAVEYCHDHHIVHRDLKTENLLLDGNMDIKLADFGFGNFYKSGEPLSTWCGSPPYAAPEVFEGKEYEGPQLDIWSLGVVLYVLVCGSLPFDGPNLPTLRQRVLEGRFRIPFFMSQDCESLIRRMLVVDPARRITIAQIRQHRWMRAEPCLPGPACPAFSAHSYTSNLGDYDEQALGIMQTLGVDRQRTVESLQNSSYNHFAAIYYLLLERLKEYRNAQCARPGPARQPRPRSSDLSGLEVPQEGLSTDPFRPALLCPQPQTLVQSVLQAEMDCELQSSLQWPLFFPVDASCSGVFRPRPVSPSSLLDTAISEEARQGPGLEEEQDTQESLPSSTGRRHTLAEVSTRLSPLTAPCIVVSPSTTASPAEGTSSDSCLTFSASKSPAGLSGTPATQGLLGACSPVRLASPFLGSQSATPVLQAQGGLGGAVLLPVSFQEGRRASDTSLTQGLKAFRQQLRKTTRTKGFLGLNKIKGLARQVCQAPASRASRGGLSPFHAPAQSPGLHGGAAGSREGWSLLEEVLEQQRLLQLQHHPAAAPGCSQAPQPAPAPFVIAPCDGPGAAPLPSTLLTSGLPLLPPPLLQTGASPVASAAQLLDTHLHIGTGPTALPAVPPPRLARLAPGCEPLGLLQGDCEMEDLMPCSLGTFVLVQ
SIK2, sequence (Q9H0K1 whole entry): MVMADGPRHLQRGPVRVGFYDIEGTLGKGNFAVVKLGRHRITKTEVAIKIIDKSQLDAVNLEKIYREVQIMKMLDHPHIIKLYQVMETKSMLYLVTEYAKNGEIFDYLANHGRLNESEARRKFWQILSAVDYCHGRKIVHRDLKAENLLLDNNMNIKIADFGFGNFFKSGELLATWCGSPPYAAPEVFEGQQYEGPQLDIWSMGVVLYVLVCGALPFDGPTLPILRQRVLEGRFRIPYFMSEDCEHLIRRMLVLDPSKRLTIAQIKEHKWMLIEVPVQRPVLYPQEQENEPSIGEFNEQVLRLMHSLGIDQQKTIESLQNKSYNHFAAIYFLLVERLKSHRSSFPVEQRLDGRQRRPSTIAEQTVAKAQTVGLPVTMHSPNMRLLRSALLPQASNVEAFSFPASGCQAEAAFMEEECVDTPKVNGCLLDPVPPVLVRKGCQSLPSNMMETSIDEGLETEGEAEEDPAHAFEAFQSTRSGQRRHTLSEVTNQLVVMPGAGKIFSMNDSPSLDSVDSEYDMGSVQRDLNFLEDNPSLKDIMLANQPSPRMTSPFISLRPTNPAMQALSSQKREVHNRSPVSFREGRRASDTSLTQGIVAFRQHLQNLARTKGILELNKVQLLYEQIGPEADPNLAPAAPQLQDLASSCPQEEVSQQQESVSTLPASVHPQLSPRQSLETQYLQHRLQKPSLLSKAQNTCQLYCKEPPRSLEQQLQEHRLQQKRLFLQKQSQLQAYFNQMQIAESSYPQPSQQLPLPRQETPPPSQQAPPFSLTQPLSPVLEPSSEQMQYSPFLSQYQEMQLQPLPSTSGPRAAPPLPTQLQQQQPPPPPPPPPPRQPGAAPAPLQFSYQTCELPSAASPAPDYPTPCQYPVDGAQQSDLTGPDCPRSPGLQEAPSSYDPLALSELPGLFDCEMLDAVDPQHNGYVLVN

SMILES	Ki (SIK1) [nM]	Ki (Abl) [nM]	Ki (Src) [nM]	Ki (SIK2) [nM]	Ki (SIK3) [nM]
CCN1CCC(N2C(=O)N(c3c(C)cccc3Cl)Cc3cnccc32)CC1 [Example 33, 3-(2-chloro-6-methyl-phenyl)-1-(1-ethyl-4-piperidyl)-4H-pyrido[4,3-d]pyrimidin-2-one]	34.1	4950	1540	20.3	213
Cc1cccc(Cl)c1N1Cc2cnc(N)cc2N(C2CCNCC2)C1=O [Example 6, 7-amino-3-(2-chloro-6-methyl-phenyl)-1-(4-piperidyl)-4H-pyrido[4,3-d]pyrimidin-2-one]	3.35	108	216	3.09	10.8
Cc1cccc(Cl)c1N1Cc2cnc(N)cc2N(C2CCN(C)CC2)C1=O [Example 7, 7-amino-3-(2-chloro-6-methyl-phenyl)-1-(1-methyl-4-piperidyl)-4H-pyrido[4,3-d]pyrimidin-2-one]	3.21	271	263	2.49	9.46
CCN1CCC(N2C(=O)N(c3c(C)cccc3Cl)Cc3cncnc32)CC1 [Example 29, 3-(2-chloro-6-methyl-phenyl)-1-(1-ethyl-4-piperidyl)-4H-pyrimido[4,5-d]pyrimidin-2-one]	207	6490	> 100000	128	1700
Cc1cccc(F)c1N1Cc2cncnc2N(C2CCNCC2)C1=O [Example 16, 3-(2-fluoro-6-methyl-phenyl)-1-(4-piperidyl)-4H-pyrimido[4,5-d]pyrimidin-2-one]	223	4180	> 100000	92.2	489
Cc1cccc(Cl)c1N1Cc2cnc(N)nc2N(C2CCNCC2)C1=O [Example 15, 7-Amino-3-(2-chloro-6-methyl-phenyl)-1-(4-piperidyl)-4H-pyrimido[4,5-d]pyrimidin-2-one]	6.23	> 1000	138	1.63	18.7
Cc1cccc(Cl)c1N1Cc2cnccc2N(C2CCN(C)CC2)C1=O [Example 32, 3-(2-chloro-6-methyl-phenyl)-1-(1-methyl-4-piperidyl)-4H-pyrido[4,3-d]pyrimidin-2-one]	14.7	> 10000	514	19.6	144
Cc1cccc(F)c1N1Cc2cnc(N)nc2N(C2CCN(C)CC2)C1=O [Example 19, 7-Amino-3-(2-fluoro-6-methyl-phenyl)-1-(1-methyl-4-piperidyl)-4H-pyrimido[4,5-d]pyrimidin-2-one]	9.73	> 1000	> 1000	0.739	4.12
Cc1cccc(Cl)c1N1Cc2cnc(N)nc2N(C2CCN(C)CC2)C1=O [Example 22, 7-amino-3-(2-chloro-6-methyl-phenyl)-1-(1-methyl-4-piperidyl)-4H-pyrimido[4,5-d]pyrimidin-2-one]	10.6	> 1000	265	3.07	27.8
Cc1cccc(F)c1N1Cc2cncnc2N(C2CCN(C)CC2)C1=O [Example 26, 3-(2-fluoro-6-methyl-phenyl)-1-(1-methyl-4-piperidyl)-4H-pyrimido[4,5-d]pyrimidin-2-one]	586	> 100000	> 100000	192	895
Cc1cccc(F)c1N1Cc2cnc(N)nc2N(C2CCNCC2)C1=O [Example 11, 7-Amino-3-(2-fluoro-6-methyl-phenyl)-1-(4-piperidyl)-4H-pyrimido[4,5-d]pyrimidin-2-one]	2.36	171	464	0.481	4.44
Cc1cccc(Cl)c1N1Cc2cnccc2N(C2CCNCC2)C1=O [Example 66, 3-(2-chloro-6-methyl-phenyl)-1-(4-piperidyl)-4H-pyrido[4,3-d]pyrimidin-2-one]	10.2	621	436	13.2	98.8
Cc1cccc(Cl)c1N1Cc2cncnc2N(C2CCN(C)CC2)C1=O [Example 28, 3-(2-chloro-6-methyl-phenyl)-1-(1-methyl-4-piperidyl)-4H-pyrimido[4,5-d]pyrimidin-2-one]	397	6220	> 100000	213	2220
CCN1CCC(N2C(=O)N(c3c(C)cccc3F)Cc3cnccc32)CC1 [Example 25, 1-(1-ethyl-4-piperidyl)-3-(2-fluoro-6-methyl-phenyl)-4H-pyrido[4,3-d]pyrimidin-2-one]	33.2	> 10000	2640	17	36.3
Cc1cccc(F)c1N1Cc2cnccc2N(C2CCNCC2)C1=O [Example 18, 3-(2-Fluoro-6-methyl-phenyl)-1-(4-piperidyl)-4H-pyrido[4,3-d]pyrimidin-2-one]	12	512	1900	8.2	21.2
Cc1cccc(F)c1N1Cc2cnccc2N(C2CCN(C)CC2)C1=O [Example 24, 3-(2-fluoro-6-methyl-phenyl)-1-(1-methyl-4-piperidyl)-4H-pyrido[4,3-d]pyrimidin-2-one]	20.6	> 10000	2250	8.97	24
Cc1cccc(Cl)c1N1Cc2cncnc2N(C2CCNCC2)C1=O [Example 17, 3-(2-chloro-6-methyl-phenyl)-1-(4-piperidyl)-4H-pyrimido[4,5-d]pyrimidin-2-one]	273	3950	> 100000	128	1400
Cc1cccc(F)c1N1Cc2cnc(N)cc2N(C2CCNCC2)C1=O [Example 1, 7-Amino-3-(2-fluoro-6-methyl-phenyl)-1-(4-piperidyl)-4H-pyrido[4,3-d]pyrimidin-2-one]	1.68	> 1000	> 1000	0.248	1.79
CCN1CCC(N2C(=O)N(c3c(C)cccc3F)Cc3cnc(N)nc32)CC1 [Example 20, 7-amino-1-(1-ethyl-4-piperidyl)-3-(2-fluoro-6-methyl-phenyl)-4H-pyrimido[4,5-d]pyrimidin-2-one]	6.61	> 1000	> 1000	0.803	7.18
Cc1cccc(F)c1N1Cc2cnc(N)cc2N(C2CCN(C)CC2)C1=O [Example 3, 7-Amino-3-(2-fluoro-6-methyl-phenyl)-1-(1-methyl-4-piperidyl)-4H-pyrido[4,3-d]pyrimidin-2-one]	0.632	122	387	0.239	0.975
CCN1CCC(N2C(=O)N(c3c(C)cccc3F)Cc3cncnc32)CC1 [Example 27, 1-(1-ethyl-4-piperidyl)-3-(2-fluoro-6-methyl-phenyl)-4H-pyrimido[4,5-d]pyrimidin-2-one]	635	4190	> 100000	210	956

From patent publication US12509457B2, “Bicyclic nitrogen containing heterocycles as inhibitors of salt-induced kinase SIK2” (priority 2019, dated 2025)
